Measurements: article PMC5847526, “Inhibition of neuronal FLT3 receptor tyrosine kinase alleviates peripheral neuropathic pain in mice” (Nature Communications, 2018)

What was measured:
[1] = target: T1, PDGFRα (Homo sapiens, UniProt P16234); test: biochemical; parameters: ExpresS Diversity kinase profile (Eurofins Cerep P10), per cent inhibition; details: read-out: Inhibition of reference binding (Table 4)
T1 construct: gene PDGFRA

[2] = target: T2, IKKα (Homo sapiens, UniProt O15111); test: biochemical; parameters: ExpresS Diversity kinase profile (Eurofins Cerep P10), per cent inhibition; details: read-out: Inhibition of reference binding (Table 4)
T2 construct: gene CHUK
T2 sequence (O15111 whole entry): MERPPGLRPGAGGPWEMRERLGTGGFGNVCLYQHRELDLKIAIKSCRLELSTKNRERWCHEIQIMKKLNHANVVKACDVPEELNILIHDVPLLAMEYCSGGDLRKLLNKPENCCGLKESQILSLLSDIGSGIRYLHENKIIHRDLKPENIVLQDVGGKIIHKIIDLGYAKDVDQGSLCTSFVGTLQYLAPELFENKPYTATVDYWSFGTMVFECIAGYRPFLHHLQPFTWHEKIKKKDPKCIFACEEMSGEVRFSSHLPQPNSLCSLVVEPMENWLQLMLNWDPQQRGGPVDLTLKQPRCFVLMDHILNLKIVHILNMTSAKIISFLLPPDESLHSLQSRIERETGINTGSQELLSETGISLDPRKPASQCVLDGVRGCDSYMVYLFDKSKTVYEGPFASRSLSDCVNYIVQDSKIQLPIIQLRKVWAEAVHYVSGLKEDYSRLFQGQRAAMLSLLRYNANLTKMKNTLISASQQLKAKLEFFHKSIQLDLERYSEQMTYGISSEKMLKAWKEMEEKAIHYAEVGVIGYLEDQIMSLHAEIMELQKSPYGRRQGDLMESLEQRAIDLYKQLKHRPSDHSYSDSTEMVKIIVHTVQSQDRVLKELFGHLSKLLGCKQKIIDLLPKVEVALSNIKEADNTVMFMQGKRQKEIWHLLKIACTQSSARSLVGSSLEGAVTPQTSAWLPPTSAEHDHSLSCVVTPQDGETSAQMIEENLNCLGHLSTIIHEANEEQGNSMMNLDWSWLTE

[3] = target: T3, Fms/CSFR kinase (Homo sapiens, UniProt P07333); test: biochemical; parameters: ExpresS Diversity kinase profile (Eurofins Cerep P10), per cent inhibition; details: read-out: Inhibition of reference binding (Table 4)
T3 construct: gene CSF1R

[4] = target: T4, p38α kinase (Homo sapiens, UniProt Q16539); test: biochemical; parameters: ExpresS Diversity kinase profile (Eurofins Cerep P10), per cent inhibition; details: read-out: Inhibition of reference binding (Table 4)
T4 construct: gene MAPK14
T4 sequence (Q16539 whole entry): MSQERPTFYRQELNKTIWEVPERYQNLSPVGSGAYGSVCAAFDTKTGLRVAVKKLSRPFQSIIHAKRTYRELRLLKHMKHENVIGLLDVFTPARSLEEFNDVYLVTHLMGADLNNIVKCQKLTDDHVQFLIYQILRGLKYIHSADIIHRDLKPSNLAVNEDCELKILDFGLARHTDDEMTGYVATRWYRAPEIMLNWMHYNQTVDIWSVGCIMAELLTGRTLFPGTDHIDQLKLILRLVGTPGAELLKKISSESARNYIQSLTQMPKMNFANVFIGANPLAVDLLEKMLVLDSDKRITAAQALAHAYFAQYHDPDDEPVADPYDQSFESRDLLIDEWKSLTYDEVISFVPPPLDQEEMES

[5] = target: JAK3 (Homo sapiens, UniProt P52333); test: biochemical; parameters: ExpresS Diversity kinase profile (Eurofins Cerep P10), per cent inhibition; details: read-out: Inhibition of reference binding (Table 4)
[6] = target: T5, PDGFRβ (Homo sapiens, UniProt P09619); test: biochemical; parameters: ExpresS Diversity kinase profile (Eurofins Cerep P10), per cent inhibition; details: read-out: Inhibition of reference binding (Table 4)
T5 construct: gene PDGFRB

[7] = target: T6, AurA/Aur2 kinase (Homo sapiens, UniProt O14965); test: biochemical; parameters: ExpresS Diversity kinase profile (Eurofins Cerep P10), per cent inhibition; details: read-out: Inhibition of reference binding (Table 4)
T6 construct: gene AURKA
T6 sequence (O14965 whole entry): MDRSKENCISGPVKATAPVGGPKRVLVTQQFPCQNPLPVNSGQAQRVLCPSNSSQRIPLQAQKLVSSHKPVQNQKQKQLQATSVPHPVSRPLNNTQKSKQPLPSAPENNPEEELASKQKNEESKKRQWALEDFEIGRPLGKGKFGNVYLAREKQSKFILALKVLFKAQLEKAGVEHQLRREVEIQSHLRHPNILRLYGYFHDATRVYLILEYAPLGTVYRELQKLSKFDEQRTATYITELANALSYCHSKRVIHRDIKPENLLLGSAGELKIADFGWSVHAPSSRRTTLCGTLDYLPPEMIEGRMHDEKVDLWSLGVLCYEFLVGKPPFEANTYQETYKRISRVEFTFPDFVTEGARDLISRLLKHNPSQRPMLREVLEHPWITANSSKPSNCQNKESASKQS

[8] = target: T7, PKCbeta 2 (Homo sapiens, UniProt P05771); test: biochemical; parameters: ExpresS Diversity kinase profile (Eurofins Cerep P10), per cent inhibition; details: read-out: Inhibition of reference binding (Table 4)
T7 construct: gene PRKCB; isoform beta 2
T7 sequence (P05771 whole entry, canonical isoform): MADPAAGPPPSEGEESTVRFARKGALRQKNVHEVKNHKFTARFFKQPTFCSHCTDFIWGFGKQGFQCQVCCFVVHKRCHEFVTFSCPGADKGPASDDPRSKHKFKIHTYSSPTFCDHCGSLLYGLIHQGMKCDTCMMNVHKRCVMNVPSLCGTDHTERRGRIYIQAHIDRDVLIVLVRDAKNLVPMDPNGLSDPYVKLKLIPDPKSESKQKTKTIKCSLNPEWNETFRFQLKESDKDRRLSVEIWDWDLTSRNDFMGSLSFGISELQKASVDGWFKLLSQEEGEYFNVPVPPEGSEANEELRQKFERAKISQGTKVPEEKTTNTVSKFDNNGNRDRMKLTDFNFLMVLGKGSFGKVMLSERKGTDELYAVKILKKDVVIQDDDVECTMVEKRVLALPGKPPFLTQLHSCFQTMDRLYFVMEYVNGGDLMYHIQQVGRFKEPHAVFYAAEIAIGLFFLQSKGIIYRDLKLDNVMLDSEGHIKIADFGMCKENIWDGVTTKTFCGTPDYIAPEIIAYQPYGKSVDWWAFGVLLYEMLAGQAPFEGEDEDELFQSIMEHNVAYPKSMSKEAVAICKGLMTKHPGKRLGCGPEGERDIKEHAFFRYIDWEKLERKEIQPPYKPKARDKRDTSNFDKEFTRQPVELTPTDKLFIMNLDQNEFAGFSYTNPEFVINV

[9] = target: NEK2 (Homo sapiens, UniProt P51955); test: biochemical; parameters: ExpresS Diversity kinase profile (Eurofins Cerep P10), per cent inhibition; details: read-out: Inhibition of reference binding (Table 4)
NEK2, sequence (P51955 whole entry): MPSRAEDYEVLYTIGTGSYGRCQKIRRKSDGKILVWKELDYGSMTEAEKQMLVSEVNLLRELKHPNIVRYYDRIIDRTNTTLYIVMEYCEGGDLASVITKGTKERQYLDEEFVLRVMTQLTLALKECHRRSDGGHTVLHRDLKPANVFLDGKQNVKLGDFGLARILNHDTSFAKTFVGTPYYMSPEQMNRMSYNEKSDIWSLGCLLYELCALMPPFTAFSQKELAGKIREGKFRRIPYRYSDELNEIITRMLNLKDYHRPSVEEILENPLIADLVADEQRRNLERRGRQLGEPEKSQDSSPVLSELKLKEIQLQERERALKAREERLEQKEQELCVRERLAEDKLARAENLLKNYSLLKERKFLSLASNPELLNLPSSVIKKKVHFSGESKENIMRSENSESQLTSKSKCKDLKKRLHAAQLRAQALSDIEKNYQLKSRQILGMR

[10] = target: SGK1 (Homo sapiens, UniProt O00141); test: biochemical; parameters: ExpresS Diversity kinase profile (Eurofins Cerep P10), per cent inhibition; details: read-out: Inhibition of reference binding (Table 4)
SGK1, sequence (O00141 whole entry): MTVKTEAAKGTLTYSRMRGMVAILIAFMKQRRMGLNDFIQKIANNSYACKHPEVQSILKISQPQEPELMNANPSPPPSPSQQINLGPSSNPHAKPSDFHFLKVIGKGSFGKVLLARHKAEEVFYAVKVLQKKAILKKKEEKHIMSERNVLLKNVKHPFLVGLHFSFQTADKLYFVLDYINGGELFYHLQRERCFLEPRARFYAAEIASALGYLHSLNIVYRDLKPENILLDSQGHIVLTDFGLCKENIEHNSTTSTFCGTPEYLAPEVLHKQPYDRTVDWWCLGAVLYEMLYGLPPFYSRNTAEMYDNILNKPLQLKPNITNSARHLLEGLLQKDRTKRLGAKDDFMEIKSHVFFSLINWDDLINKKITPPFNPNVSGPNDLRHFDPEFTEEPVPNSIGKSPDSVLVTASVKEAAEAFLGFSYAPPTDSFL

[11] = target: Pim2 kinase (Homo sapiens, UniProt Q9P1W9); test: biochemical; parameters: ExpresS Diversity kinase profile (Eurofins Cerep P10), per cent inhibition; details: read-out: Inhibition of reference binding (Table 4)
Pim2 kinase, sequence (Q9P1W9 whole entry): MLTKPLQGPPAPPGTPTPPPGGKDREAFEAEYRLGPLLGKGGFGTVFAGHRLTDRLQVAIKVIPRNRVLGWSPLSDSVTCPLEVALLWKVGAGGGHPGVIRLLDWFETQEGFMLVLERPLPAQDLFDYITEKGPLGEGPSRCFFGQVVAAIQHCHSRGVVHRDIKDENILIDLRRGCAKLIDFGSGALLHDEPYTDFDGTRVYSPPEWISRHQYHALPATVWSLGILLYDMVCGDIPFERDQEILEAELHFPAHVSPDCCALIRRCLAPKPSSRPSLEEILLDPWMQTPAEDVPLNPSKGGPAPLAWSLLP

[12] = target: EGFR kinase (Homo sapiens, UniProt P00533); test: biochemical; parameters: ExpresS Diversity kinase profile (Eurofins Cerep P10), per cent inhibition; details: read-out: Inhibition of reference binding (Table 4)
[13] = target: PRLR-JAK1 (Homo sapiens, UniProt P16471); test: cell-based; parameters: PathHunter eXpress functional assay (DiscoverX tkMAX), inhibition of reference ligand response; details: read-out: % Inhibition of reference binding (Table 3)
[14] = target: T8, TrkB-P75 (Homo sapiens, UniProt Q16620); test: cell-based; parameters: PathHunter eXpress functional assay (DiscoverX tkMAX), inhibition of reference ligand response; details: read-out: % Inhibition of reference binding (Table 3)
T8 construct: gene NTRK2
T8 sequence (Q16620 whole entry): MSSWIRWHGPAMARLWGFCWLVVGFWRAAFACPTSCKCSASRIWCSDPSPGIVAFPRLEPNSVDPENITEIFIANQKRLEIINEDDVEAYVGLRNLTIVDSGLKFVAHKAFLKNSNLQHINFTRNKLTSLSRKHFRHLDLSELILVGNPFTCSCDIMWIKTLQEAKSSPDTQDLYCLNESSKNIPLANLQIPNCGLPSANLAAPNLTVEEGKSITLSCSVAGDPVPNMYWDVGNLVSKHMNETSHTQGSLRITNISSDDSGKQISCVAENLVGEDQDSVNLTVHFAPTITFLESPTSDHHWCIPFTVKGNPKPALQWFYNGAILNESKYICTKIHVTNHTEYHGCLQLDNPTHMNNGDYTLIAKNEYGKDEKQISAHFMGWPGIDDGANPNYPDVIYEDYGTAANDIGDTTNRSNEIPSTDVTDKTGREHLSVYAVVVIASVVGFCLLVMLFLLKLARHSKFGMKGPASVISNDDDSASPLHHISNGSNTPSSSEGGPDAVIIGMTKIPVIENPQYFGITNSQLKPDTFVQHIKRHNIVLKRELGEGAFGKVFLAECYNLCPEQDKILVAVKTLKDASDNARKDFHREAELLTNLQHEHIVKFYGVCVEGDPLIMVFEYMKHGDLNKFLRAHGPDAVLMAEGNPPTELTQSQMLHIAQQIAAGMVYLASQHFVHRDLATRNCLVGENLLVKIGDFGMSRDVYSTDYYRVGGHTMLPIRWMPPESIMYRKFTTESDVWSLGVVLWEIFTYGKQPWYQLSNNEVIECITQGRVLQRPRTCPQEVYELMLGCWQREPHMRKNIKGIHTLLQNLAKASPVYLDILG
T8 sequence (P08138 whole entry partner): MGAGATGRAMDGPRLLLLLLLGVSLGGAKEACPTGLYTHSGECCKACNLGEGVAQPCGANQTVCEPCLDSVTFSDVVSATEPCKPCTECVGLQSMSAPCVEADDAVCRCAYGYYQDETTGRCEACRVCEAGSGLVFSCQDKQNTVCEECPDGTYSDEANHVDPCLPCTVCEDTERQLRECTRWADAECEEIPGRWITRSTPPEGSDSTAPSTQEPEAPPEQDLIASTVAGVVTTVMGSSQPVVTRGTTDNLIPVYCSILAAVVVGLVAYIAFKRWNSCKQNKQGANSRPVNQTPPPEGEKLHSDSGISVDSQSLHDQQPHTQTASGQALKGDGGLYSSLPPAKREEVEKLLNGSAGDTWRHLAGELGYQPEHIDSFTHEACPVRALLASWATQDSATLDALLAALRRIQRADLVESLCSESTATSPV

With O=C(Nc1cc(Cl)ccc1O)c1cccc(S(=O)(=O)N2CCCCC2)c1 [compound 66, BDT001] the inhibition at 10 µM [1] was 40%, the inhibition at 10 µM [2] was 20% and the inhibition at 10 µM [3] was 1%. The inhibition at 10 µM [4] was 23%, the inhibition at 10 µM [5] was -3% and the inhibition at 10 µM [6] was -2%. For the same compound, the inhibition at 10 µM [7] was -5%, the inhibition at 10 µM [8] was 1% and the inhibition at 10 µM [9] was -23%. It also gave an inhibition at 10 µM [10] of 16%, an inhibition at 10 µM [11] of 19% and an inhibition at 10 µM [12] of 4%. For the same compound, the inhibition at 10 µM [13] was 6.1% and the inhibition at 10 µM [14] was -1.3%.
